According to paper PMC11101940, “A highly selective KIT inhibitor MOD000001 suppresses IgE-mediated mast cell activation” (The Journal of Allergy and Clinical Immunology: Global, 2024):

How the values were obtained:
Assay type in all cases: biochemical
[1] = target: platelet derived growth factor-receptor A (PDGFRA) (Homo sapiens, UniProt P16234); experiment: cell-free recombinant human kinase assay
KIT = KIT (Homo sapiens, UniProt P10721); experiment: cell-free recombinant human kinase assay (also KINOMEscan binding)
[2] = target: platelet derived growth factor-receptor B (PDGFRB) (Homo sapiens, UniProt P09619); experiment: cell-free recombinant human kinase assay
Sequence of platelet derived growth factor-receptor B (PDGFRB) (P09619 33-1106): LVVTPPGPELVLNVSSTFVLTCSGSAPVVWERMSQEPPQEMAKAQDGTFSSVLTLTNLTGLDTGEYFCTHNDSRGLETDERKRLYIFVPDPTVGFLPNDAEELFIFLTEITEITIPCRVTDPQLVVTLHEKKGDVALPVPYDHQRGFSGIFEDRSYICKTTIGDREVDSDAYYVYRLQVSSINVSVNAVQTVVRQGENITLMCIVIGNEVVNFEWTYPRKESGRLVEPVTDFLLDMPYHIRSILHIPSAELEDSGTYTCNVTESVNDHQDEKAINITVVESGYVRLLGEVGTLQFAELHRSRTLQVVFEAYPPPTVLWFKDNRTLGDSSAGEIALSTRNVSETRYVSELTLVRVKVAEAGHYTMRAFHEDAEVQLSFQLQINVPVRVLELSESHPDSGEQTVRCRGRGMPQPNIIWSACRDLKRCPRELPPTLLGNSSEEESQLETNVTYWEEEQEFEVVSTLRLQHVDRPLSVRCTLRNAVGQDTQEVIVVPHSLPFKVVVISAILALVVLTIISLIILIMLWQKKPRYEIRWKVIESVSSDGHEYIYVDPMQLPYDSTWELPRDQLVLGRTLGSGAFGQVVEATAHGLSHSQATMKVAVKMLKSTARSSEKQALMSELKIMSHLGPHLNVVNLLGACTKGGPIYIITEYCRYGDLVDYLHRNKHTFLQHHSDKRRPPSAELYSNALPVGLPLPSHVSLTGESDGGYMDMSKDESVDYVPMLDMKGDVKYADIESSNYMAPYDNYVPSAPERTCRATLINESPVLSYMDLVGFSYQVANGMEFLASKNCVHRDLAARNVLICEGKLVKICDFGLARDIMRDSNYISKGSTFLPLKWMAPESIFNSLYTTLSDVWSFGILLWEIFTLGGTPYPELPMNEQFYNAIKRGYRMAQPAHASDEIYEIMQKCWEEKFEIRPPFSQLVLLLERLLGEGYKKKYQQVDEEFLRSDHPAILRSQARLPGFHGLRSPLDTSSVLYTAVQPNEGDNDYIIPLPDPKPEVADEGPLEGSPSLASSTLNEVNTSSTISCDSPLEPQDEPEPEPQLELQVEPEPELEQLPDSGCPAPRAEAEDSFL

Sequence of KIT (P10721 26-976): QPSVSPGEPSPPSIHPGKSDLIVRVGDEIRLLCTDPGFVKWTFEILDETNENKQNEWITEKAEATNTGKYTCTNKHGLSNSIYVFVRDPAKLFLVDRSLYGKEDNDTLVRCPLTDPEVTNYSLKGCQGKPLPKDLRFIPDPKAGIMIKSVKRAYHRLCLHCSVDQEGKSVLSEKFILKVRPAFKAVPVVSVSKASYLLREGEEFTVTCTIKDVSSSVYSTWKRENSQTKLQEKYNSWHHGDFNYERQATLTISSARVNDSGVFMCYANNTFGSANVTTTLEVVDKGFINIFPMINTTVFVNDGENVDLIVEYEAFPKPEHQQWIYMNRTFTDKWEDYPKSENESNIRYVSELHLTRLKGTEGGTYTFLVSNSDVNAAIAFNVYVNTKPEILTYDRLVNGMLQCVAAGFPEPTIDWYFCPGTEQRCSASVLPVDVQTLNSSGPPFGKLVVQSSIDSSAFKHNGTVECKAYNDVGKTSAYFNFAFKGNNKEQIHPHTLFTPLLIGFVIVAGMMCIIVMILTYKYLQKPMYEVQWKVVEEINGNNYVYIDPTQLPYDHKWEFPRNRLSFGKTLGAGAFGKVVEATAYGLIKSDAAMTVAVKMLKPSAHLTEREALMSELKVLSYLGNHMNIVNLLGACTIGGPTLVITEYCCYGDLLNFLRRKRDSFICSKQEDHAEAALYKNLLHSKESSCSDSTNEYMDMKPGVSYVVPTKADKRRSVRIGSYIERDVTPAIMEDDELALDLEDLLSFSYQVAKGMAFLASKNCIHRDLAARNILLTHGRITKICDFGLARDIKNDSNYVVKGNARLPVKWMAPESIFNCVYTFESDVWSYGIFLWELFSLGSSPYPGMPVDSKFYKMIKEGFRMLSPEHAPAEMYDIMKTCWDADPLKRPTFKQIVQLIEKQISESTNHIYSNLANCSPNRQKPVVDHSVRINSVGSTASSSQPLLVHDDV
Sequence of platelet derived growth factor-receptor A (PDGFRA) (P16234 24-1089): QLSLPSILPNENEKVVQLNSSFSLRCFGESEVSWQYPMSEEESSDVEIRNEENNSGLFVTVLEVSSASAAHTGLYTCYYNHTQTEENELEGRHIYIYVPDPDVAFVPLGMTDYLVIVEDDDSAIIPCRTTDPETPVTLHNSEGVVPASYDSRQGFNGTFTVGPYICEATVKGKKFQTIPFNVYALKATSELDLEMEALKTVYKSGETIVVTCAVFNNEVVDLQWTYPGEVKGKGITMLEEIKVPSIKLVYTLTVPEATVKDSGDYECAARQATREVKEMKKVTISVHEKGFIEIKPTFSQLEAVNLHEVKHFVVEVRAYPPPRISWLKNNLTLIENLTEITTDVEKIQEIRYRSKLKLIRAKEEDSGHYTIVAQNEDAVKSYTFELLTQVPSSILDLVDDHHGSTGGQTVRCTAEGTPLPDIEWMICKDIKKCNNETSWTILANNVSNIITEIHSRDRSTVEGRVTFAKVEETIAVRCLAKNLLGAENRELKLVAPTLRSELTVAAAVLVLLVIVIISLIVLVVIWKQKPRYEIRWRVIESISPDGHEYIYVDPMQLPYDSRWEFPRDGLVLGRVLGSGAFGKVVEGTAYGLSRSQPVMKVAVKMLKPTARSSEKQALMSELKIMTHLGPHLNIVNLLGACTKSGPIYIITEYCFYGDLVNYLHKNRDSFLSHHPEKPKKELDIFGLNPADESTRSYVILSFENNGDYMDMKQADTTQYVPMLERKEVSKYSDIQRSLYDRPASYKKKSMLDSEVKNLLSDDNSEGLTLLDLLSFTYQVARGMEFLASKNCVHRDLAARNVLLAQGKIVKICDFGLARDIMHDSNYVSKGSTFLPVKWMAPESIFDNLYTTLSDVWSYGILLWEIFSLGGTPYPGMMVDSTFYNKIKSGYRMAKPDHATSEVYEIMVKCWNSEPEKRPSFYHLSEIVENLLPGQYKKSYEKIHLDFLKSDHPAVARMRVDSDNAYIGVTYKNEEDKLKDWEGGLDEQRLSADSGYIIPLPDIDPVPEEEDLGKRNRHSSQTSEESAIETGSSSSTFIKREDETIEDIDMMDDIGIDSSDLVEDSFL

MOD000001
IC50 [1]: 1400 nM | IC50 (KIT): 2 nM | IC50 [2]: 218 nM
